Measured values from article PMC9123294, “Role of LL-37 in thrombotic complications in patients with COVID-19” (Cellular and Molecular Life Sciences: CMLS, 2022).

B1: Cramp (peptide)
peptide: GLLRKGGEKIGEKLKKIGQKIKNFFQKLVPQPE
notes: also called LL-37 homolog from Mus musculus; cathelicidin peptide; source: synthetic peptide (GL Biochem, Shanghai; purity > 98%)

What was measured:
[1] = biological target: Human alpha thrombin (Homo sapiens, UniProt P00734); assay: biochemical
Experimental: SPR analysis was performed as described previously, with some modifications. Briefly, thrombin and FXa were immobilized on the activated sensor chip CM-5 by amine coupling. […] The equilibrium dissociation constant (KD) was calculated using the Langmuir model with Biacore evaluation software provided by the manufacturer.

[2] = biological target: T1, Human factor Xa (human, UniProt P00742 41-179; P00742 235-488); assay: SPR; thrombin and FXa immobilised on a CM-5 sensor chip by amine coupling; LL-37 or Cramp flowed in HBS-EP+ running buffer at 30 ul/min; BIAcore 3000; KD from the Langmuir model; settings: both partners purified
T1 construct: also called FXa; source: bought: Enzyme Research Laboratories (HFXa 1011)
T1 sequence (P00742 41-179, chain 1 of 2): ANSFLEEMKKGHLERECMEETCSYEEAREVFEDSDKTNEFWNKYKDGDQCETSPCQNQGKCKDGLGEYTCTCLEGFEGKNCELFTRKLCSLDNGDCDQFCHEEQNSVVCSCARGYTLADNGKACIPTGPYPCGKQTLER
T1 sequence (P00742 235-488, chain 2 of 2): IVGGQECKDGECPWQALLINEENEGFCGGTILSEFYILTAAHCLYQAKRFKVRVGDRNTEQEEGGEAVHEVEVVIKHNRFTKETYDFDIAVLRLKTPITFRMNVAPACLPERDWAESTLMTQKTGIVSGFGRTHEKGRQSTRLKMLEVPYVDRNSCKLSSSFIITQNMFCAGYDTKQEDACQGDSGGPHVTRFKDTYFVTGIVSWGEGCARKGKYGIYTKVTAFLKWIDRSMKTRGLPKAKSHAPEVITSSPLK

Row | Molecule | Kd [1] [µM] | Kd [2] [µM]
1 | CC[C@H](C)[C@H](NC(=O)[C@H](CCCCN)NC(=O)[C@H](CCC(=O)O)NC(=O)[C@H](CCCCN)NC(=O)[C@H](CO)NC(=O)[C@H](CCCCN)NC(=O)[C@H](CCCNC(=N)N)NC(=O)[C@H](Cc1ccccc1)NC(=O)[C@H](Cc1ccccc1)NC(=O)[C@H](CC(=O)O)NC(=O)CNC(=O)[C@H](CC(C)C)NC(=O)[C@@H](N)CC(C)C)C(=O)NCC(=O)N[C@@H](CCCCN)C(=O)N[C@@H](CCC(=O)O)C(=O)N[C@@H](Cc1ccccc1)C(=O)N[C@@H](CCCCN)C(=O)N[C@@H](CCCNC(=N)N)C(=O)N[C@H](C(=O)N[C@H](C(=O)N[C@@H](CCC(N)=O)C(=O)N[C@@H](CCCNC(=N)N)C(=O)N[C@H](C(=O)N[C@@H](CCCCN)C(=O)N[C@@H](CC(=O)O)C(=O)N[C@@H](Cc1ccccc1)C(=O)N[C@@H](CC(C)C)C(=O)N[C@@H](CCCNC(=N)N)C(=O)N[C@@H](CC(N)=O)C(=O)N[C@@H](CC(C)C)C(=O)N[C@H](C(=O)N1CCC[C@H]1C(=O)N[C@@H](CCCNC(=N)N)C(=O)N[C@H](C(=O)N[C@@H](CCC(=O)O)C(=O)N[C@@H](CO)C(=O)O)[C@@H](C)O)C(C)C)[C@@H](C)CC)C(C)C)[C@@H](C)CC [LL-37] | 2.64 | 
2 | B1 |  | 317
